Data published in US20200208128A1, “METHODS OF TREATING LIVER DISEASES” (CAMP4 THERAPEUTICS CORPORATION, priority 2017, published 2020).
Entries after “also recorded” stand apart in the source; their conditions may differ. Values belong to the molecule of their own block, whether it stands above or below them.

Assays:
PNPLA3 [1] = test: qRT-PCR validation of PNPLA3 expression in primary human hepatocytes; assay type: cell-based
Procedure: Cryopreserved hepatocytes were cultured in plating media for 16 hours, transferred to maintenance media for 4 hours. Cultured on serum-free media for 2 hours, then a compound was added. The hepatocytes were maintained on the serum-free media for 16 hours prior to gene expression analysis. Primary Human Hepatocytes were stored in the vapor phase of a liquid nitrogen freezer (about −130° C.).
(§5) Human hepatocytes cultured as described above were plated in 24-well format, adding 375,000 cells per well in a volume of 500 ul plating medium. Four hours before treatment, cells were washed with PBS and the medium was changed to either: fresh maintenance medium (complete) or modified maintenance medium.
Compound stocks were prepared at 1000× final concentration and added in a 2-step dilution to the medium to reduce risk of a compound precipitating out of solution when added to the cells, and to ensure reasonable pipetting volumes. One at a time, each compound was first diluted 10-fold in warm (about 37° C.) modified maintenance medium (initial dilution=ID), mixed by vortexing, and the ID was diluted 100-fold into the cell culture (e.g. 5.1 μl into 1 well of a 24-well plate containing 0.5 mL medium). The plate was mixed by carefully swirling and after all wells were treated and returned to the incubator overnight. If desired, separate plates/wells were treated with vehicle-only controls and/or positive controls. If using multi-well plates, controls were included on each plate.
Samples were amplified using the following Taqman probes from ThermoFisher for each target: Hs01552217_m1 (human PNPLA3).
Analysis of the fold changes in expression as measured by qRT-PCR were performed using the technique below. The control was DMSO, and the treatment was the selected compound (CPD). The internal control was GAPDH or B-Actin (or otherwise indicated), and the gene of interest is the target. First, the averages of the 4 conditions were calculated for normalization: DMSO:GAPDH, DMSO:Target, CPD: GAPDH, and CPD:Target. Next, the ΔCT of both control and treatment were calculated to normalize to internal control (GAPDH) using (DMSO:Target)−(DMSO:GAPDH)=ΔCT control and (CPD:Target)−(CPD: GAPDH)=ΔCT experimental. Then, the ΔΔCT was calculated by ΔCT experimental−ΔCT control. The Expression Fold Change (or Relative Quantification, abbreviated as RQ) was calculated by 2−(ΔΔCT) (2-fold expression change was shown by RNA-Seq results provided herein).
Candidate compounds were subjected to validation with qRT-PCR in human hepatocytes. qRT-PCR was performed on samples of primary human hepatocytes from a second donor treated with the candidate compounds. Compounds were tested at concentrations ranging from 0.01 μM to 50 μM, with the majority tested at 10 μM.

COL1A1 [2] = test: qRT-PCR of COL1A1 mRNA in hepatic stellate cells; assay type: cell-based, human; conditions: for Relative COLIA1 mRNA levels RQ: four technical replicates; for Effect on COL1A1 expression in stellate cells: serial dilutions; for Relative COL1A1 mRNA levels RQ: fold change vs DMSO
Procedure: (§1) Human Primary Stellate cells (HSC) (ScienceCell Cat #5300) were originally isolated from the liver of a donor. Cells were plated in Stellate Cell Medium (SteCM) (ScienCell Cat #5301) on black clear bottom plates (GREINER BIO-ONE:82050-730) coated with 2 μg/cm^2 PolyLLysine (PLL) (ScienceCell Cat #0413). Cells were plated at a density of 17000 cells/well in a 96-well plate and allowed to adhere overnight. The following day cell culture media was replenished with the indicated concentration(s) of compound for 18 hours. […] Medium was removed after 18 hours and cells were processed for further analysis, e.g. qRT-PCR.
(§2) In some examples, RQ Min and RQ Max values are also reported. RQ Min and RQ Max are the minimum and maximum relative levels of gene expression in the test samples, respectively. They were calculated using the confidence level set in the analysis settings and the confidence level was set to one standard deviation (SD). These values were calculated using standard deviation as follows: […].
Candidate compounds were tested in stellate cells for their ability to modulate PNPLA3 and COL1A1. […] Changes in PNPLA3 (or COL1A1) mRNA levels in stellate cells were analyzed with qRT-PCR. Once compounds capable of downregulating PNPLA3 and/or COL1A1 were identified, additional compounds that are known to act in the same pathways were also tested. Transforming growth factor beta (TGF-beta) is known to induce fibrotic genes including COL1A1 in vitro, and was thus chosen as a positive control (i.e., positively regulate COL1A1 expression).

PNPLA3 [3] = test: qRT-PCR of PNPLA3 mRNA in hepatic stellate cells; assay type: cell-based, human; conditions: for Effect on PNPLA3 mRNA levels in stellate cells: serial dilutions; for Relative PNPLA3 mRNA levels RQ: fold change vs DMSO
Procedure: as §1, §2
Candidate compounds were tested in stellate cells for their ability to modulate PNPLA3 and COL1A1. Stellate cells were treated with serial dilutions of the compounds, ranging from 0.1 μM to 100 μM. Changes in PNPLA3 (or COL1A1) mRNA levels in stellate cells were analyzed with qRT-PCR. Once compounds capable of downregulating PNPLA3 and/or COL1A1 were identified, additional compounds that are known to act in the same pathways were also tested. Transforming growth factor beta (TGF-beta) is known to induce fibrotic genes including COL1A1 in vitro, and was thus chosen as a positive control (i.e., positively regulate COL1A1 expression).

[4] = target: Platelet-derived growth factor receptor alpha (PDGFRα) (Homo sapiens, UniProt P16234); conditions: cited from earlier work
Sequence of Platelet-derived growth factor receptor alpha (PDGFRα) (P16234 593-954 limits assumed): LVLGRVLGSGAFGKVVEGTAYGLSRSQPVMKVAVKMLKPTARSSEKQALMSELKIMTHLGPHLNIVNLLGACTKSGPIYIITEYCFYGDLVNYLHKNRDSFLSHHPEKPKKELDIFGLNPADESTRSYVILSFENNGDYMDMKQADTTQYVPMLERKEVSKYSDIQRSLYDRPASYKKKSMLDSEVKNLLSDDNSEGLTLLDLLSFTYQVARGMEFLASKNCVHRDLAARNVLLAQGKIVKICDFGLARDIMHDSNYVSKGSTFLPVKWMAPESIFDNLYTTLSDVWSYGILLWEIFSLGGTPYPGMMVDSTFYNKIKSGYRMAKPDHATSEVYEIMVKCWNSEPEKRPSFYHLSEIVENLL

PNPLA3 [5] = test: RNA-seq of compound-treated primary human hepatocytes: PNPLA3 expression; assay type: cell-based
Procedure: (§6) Cryopreserved hepatocytes were cultured in plating media for 16 hours, transferred to maintenance media for 4 hours. Cultured on serum-free media for 2 hours, then a compound was added. The hepatocytes were maintained on the serum-free media for 16 hours prior to gene expression analysis.
as §5
Compound stocks were prepared at 1000× final concentration and added in a 2-step dilution to the medium to reduce risk of a compound precipitating out of solution when added to the cells, and to ensure reasonable pipetting volumes. One at a time, each compound was first diluted 10-fold in warm (about 37° C.) modified maintenance medium (initial dilution=ID), mixed by vortexing, and the ID was diluted 100-fold into the cell culture (e.g. 5.1 μl into 1 well of a 24-well plate containing 0.5 mL medium). The plate was mixed by carefully swirling and after all wells were treated and returned to the incubator overnight. If desired, separate plates/wells were treated with vehicle-only controls and/or positive controls. If using multi-well plates, controls were included on each plate. After about 18 hours, cells were harvested for further analysis, e.g., ChIP-seq, RNA-seq, ATAC-seq, etc.
The expression level of each gene was quantified with normalized FPKM (fragments per kilobase of exon per million mapped fragments). The differentially expressed genes were called using Cuffdiff v2.2.1 with q value <0.01 and log 2fold change >=1 or <=−1.
RNA-seq was performed to determine the effects of the compounds on PNPLA3 expression in hepatocytes. Fold change was calculated by dividing the level of expression in the cell system that had been perturbed by the level of expression in an unperturbed system. Changes in expression having a p-value ≤0.05 were considered significant.

[6] = target: stem cell growth factor receptor (SCFR or c-Kit) (Homo sapiens, UniProt P10721); conditions: cited from earlier work
Sequence of stem cell growth factor receptor (SCFR or c-Kit) (P10721 whole entry D816H, form open): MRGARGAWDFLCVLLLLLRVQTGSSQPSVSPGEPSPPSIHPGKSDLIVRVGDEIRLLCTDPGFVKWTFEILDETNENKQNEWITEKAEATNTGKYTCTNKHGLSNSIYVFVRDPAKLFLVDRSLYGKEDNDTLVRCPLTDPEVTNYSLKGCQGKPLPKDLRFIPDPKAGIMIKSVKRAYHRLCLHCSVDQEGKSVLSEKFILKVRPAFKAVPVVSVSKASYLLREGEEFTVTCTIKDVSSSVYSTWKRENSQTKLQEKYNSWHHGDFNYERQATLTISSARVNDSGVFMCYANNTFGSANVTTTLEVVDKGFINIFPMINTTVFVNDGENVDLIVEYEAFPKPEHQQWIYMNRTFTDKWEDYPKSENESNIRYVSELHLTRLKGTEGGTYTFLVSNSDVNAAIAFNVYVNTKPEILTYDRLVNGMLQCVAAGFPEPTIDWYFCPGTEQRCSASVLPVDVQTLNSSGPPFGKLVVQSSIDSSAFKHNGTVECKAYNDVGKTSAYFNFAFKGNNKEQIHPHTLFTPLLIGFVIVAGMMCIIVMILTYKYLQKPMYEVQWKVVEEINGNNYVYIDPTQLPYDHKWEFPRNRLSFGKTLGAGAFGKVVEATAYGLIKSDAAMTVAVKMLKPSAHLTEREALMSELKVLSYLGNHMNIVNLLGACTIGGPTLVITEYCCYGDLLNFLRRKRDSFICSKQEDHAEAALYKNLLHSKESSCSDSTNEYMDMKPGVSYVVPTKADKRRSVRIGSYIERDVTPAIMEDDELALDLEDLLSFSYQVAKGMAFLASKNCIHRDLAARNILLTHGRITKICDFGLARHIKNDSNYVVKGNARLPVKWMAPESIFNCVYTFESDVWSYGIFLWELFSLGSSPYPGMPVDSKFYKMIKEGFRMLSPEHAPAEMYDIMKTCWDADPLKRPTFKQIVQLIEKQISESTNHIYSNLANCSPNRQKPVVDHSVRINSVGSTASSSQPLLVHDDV

FLT3 = target: T1, FLT3 (Homo sapiens, UniProt P36888); conditions: cited from earlier work
T1 construct: IC50; other: FLT3
T1 sequence (P36888 1-993 D835Y): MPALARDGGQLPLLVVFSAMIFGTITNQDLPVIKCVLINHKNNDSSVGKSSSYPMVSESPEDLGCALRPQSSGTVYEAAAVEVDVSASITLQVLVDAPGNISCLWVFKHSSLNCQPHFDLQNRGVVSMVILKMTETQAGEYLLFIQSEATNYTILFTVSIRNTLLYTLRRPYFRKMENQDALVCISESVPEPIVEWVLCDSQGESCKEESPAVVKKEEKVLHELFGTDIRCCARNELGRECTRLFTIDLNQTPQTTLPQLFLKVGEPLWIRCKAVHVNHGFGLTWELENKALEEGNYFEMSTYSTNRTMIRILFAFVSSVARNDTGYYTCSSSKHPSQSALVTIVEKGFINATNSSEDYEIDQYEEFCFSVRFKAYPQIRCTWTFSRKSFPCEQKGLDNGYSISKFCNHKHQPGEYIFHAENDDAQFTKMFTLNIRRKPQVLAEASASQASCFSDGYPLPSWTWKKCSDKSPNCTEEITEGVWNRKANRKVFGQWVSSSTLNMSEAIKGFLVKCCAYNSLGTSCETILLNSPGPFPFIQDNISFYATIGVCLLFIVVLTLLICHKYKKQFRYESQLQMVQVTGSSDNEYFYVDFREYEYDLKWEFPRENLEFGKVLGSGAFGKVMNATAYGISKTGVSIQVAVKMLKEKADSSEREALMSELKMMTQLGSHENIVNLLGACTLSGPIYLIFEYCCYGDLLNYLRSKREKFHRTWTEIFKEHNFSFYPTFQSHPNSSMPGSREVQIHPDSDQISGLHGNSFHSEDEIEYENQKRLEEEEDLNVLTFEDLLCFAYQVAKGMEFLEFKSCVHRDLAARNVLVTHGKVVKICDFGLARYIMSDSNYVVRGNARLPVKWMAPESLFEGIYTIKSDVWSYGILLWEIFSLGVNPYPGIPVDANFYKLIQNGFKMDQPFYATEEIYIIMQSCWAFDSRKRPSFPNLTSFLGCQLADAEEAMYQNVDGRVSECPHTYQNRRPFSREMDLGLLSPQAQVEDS

JNK = conditions: cited from earlier work
[7] = In vivo compound testing in mice: body weight, organ weight, other liver genes; parameters: species or system mouse; conditions: 50 mg/kg once daily, four days
Procedure: (§3) A group of 6 mice (C57BL/6J strain), 3 male and 3 female, were administered with a candidate compound once daily via oral gavage for four consecutive days. Mice were sacrificed 4 hours post-last dose on the fourth day. Organs including liver, spleen, kidney, adipose, plasma were collected. Mouse liver tissues were pulverized in liquid nitrogen and aliquoted into small microtubes. TRIzol (Invitrogen Cat #15596026) was added to the tubes to facilitate cell lysis from tissue samples. The TRIzol solution containing the disrupted tissue was then centrifuged and the supernatant phase was collected. Total RNA was extracted from the supernatant using Qiagen RNA Extraction Kit (Qiagen Cat #74182) and the target mRNA levels were analyzed using qRT-PCR.
(§4) Candidate compounds were administered at an appropriate dose once daily to a group of wild-type mice consisting of 3 male and 3 female mice. Mice were sacrificed on the fourth day and liver tissue was collected and analyzed for PNPLA3 (or COL1A1) expression by qRT-PCR. […] When COL1A1 was analyzed, a stellate cell specific gene GFAP was used as a house-keeping control.

[8] = test system: PNPLA3 (I148M mutation), HepG2 cells; test: qRT-PCR of mutant PNPLA3 expression in HepG2 cells; assay type: cell-based
Procedure: HepG2 cells were plated in 24 well format at 100,000 cells per well in 500 μl DMEM. […] The following morning, the cells were harvested for RNA extraction.
Candidate compounds were evaluated in a PNPLA3 mutant cell line HepG2 to test their effects on mutant PNPLA3 expression. The HepG2 cells have the I148M mutation in PNPLA3. Changes in PNPLA3 expression in HepG2 cells were analyzed with qRT-PCR. PNPLA3 mRNA levels were normalized to the geometric mean of two internal controls, GUSB and B2M.

PNPLA3 [9] = test: In vivo compound testing in mice: PNPLA3 expression in liver (qRT-PCR); parameters: species or system mouse; conditions: wild-type mice, 50 mg/kg once daily oral gavage, four days
Procedure: as §3, §4

PNPLA3 [10] = test: qRT-PCR of PNPLA3 expression in mouse hepatocytes; assay type: cell-based
Procedure: Analysis of the fold changes in expression as measured by qRT-PCR were performed using the technique below. The control was DMSO, and the treatment was the selected compound (CPD). The internal control was GAPDH or B-Actin (or otherwise indicated), and the gene of interest is the target. First, the averages of the 4 conditions were calculated for normalization: DMSO:GAPDH, DMSO:Target, CPD: GAPDH, and CPD:Target. Next, the ΔCT of both control and treatment were calculated to normalize to internal control (GAPDH) using (DMSO:Target)−(DMSO:GAPDH)=ΔCT control and (CPD:Target)−(CPD: GAPDH)=ΔCT experimental. Then, the ΔΔCT was calculated by ΔCT experimental−ΔCT control.
Compounds were tested at concentrations ranging from 0.01 μM to 50 μM. […] PNPLA3 levels were normalized to the level of a house keeping gene ACTB.

COL1A1 [11] = test: In vivo compound testing in mice: COL1A1 expression in liver (qRT-PCR); parameters: species or system mouse; conditions: wild-type mice, 50 mg/kg once daily oral gavage, four days, GFAP as house-keeping control
Procedure: as §3, §4

PNPLA5 = test: RNA-seq of compound-treated primary human hepatocytes: PNPLA5 expression; assay type: cell-based
Procedure: as §6, §5
Compound stocks were prepared at 1000× final concentration and added in a 2-step dilution to the medium to reduce risk of a compound precipitating out of solution when added to the cells, and to ensure reasonable pipetting volumes. One at a time, each compound was first diluted 10-fold in warm (about 37° C.) modified maintenance medium (initial dilution=ID), mixed by vortexing, and the ID was diluted 100-fold into the cell culture (e.g. 5.1 μl into 1 well of a 24-well plate containing 0.5 mL medium). […]
The expression level of each gene was quantified with normalized FPKM (fragments per kilobase of exon per million mapped fragments). […]
Fold change was calculated by dividing the level of expression in the cell system that had been perturbed by the level of expression in an unperturbed system. […]

Effect on PNPLA3 expression in human hepatocytes (PNPLA3 [1]): efficient downregulation
Molecule: Cc1cc(Nc2nc(N[C@@H](C)c3ncc(F)cn3)ncc2Cl)[nH]n1 [AZD1480]

Molecule: CN1CCN(S(=O)(=O)c2ccc(-c3cnc(N)c(C(=O)Nc4cccnc4)n3)cc2)CC1 [AZD2858]
Relative COLIA1 mRNA levels RQ (COL1A1 [2]; 1 μM): 0.83 | Relative COLIA1 mRNA levels RQ (COL1A1 [2]; 10 μM): 0.72 | Effect on COL1A1 expression in stellate cells (COL1A1 [2]): modestly decreased both PNPLA3 and COL1A1 in a dose dependent manner | Effect on PNPLA3 mRNA levels in stellate cells (PNPLA3 [3]): modestly decreased both PNPLA3 and COL1A1 in a dose dependent manner

Molecule: S=C(NCc1ccc2c(c1)OCO2)N1CCN(c2ncnc3c2oc2ccccc23)CC1 [Amuvatinib]
IC50 [4]: 40 nM | PNPLA3 expression, Fold change (Log 2) vs untreated (PNPLA3 [5]): −0.52 Log 2 | IC50 [6]: 10 nM | IC50 (FLT3): 81 nM

Molecule: O=C1Nc2cc(Br)ccc2/C1=C1/Nc2ccccc2/C1=N\O [BIO]
Relative COLIA1 mRNA levels RQ (COL1A1 [2]; 1 μM): 0.74 | Relative COLIA1 mRNA levels RQ (COL1A1 [2]; 10 μM): 0.59 | Effect on COL1A1 expression in stellate cells (COL1A1 [2]): modestly decreased both PNPLA3 and COL1A1 in a dose dependent manner | Effect on PNPLA3 mRNA levels in stellate cells (PNPLA3 [3]): modestly decreased both PNPLA3 and COL1A1 in a dose dependent manner

Molecule: COc1nc(N)nc2c1ncn2[C@@H]1O[C@H](COP(=O)(N[C@@H](C)C(=O)OCC(C)(C)C)Oc2cccc3ccccc23)[C@@H](O)[C@@]1(C)O (stereo partly shown) [BMS-986094]
PNPLA3 expression, Fold change (Log 2) vs untreated (PNPLA3 [5]): −0.69 Log 2

Molecule: N#CCNC(=O)c1ccc(-c2ccnc(Nc3ccc(N4CCOCC4)cc3)n2)cc1 [Momelotinib, N-(cyanomethyl)-4-{2-[4-(morpholin-4-yl)anilino]pyrimidin-4-yl}benzamide]
Effect on COL1A1 expression in stellate cells (COL1A1 [2]): did not alter COL1A1 expression | IC50 (JNK): < 100 nM | Effect on PNPLA3 mRNA levels in stellate cells (PNPLA3 [3]): reduced PNPLA3 mRNA levels in stellate cells in a dose-dependent manner | Animal body weight, organ weight, other liver genes such as albumin, ASGR1, HAMP1 [7]: No change was observed | Response of mutant PNPLA3 mRNA levels in HepG2 cells [8]: dose-dependent manner | Effect on PNPLA3 expression in human hepatocytes (PNPLA3 [1]): substantial decrease; also recorded: dose-dependent response | PNPLA3 expression in mouse liver (PNPLA3 [9]): reduced PNPLA3 significantly

Effect on PNPLA3 expression in human hepatocytes (PNPLA3 [1]): efficient downregulation
Molecule: CNS(=O)(=O)C[C@H]1CC[C@H](N(C)c2ncnc3[nH]ccc23)CC1 [Oclacitinib]

Molecule: COc1ccc(-c2cc3c(C)nc(N)nc3n([C@H]3CC[C@H](OCCO)CC3)c2=O)cn1 [PF-04691502]
Relative PNPLA3 mRNA levels (PNPLA3 [10]; 1 μM): 0.21 ± 0.10

Effect on PNPLA3 expression in human hepatocytes (PNPLA3 [1]): substantial decrease
Molecule: C1=C/COCc2cc(ccc2OCCN2CCCC2)Nc2nccc(n2)-c2cccc(c2)COC/1 [Pacritinib]

Molecule: NS(=O)(=O)C#Cc1ccccc1 [Pifithrin-μ, 2-Phenylethynesulfonamide]
PNPLA3 expression, Fold change (Log 2) vs untreated (PNPLA3 [5]): −0.68 Log 2

Molecule: CCC(=O)N1CCN(c2ccc(-n3c(=O)ccc4cnc5ccc(-c6cnc7ccccc7c6)cc5c43)cc2C(F)(F)F)CC1 [Torin 1]
Relative COL1A1 mRNA levels RQ (COL1A1 [2]; compound 0.01 μM): 0.29 | Relative COL1A1 mRNA levels RQ (COL1A1 [2]; compound 0.1 μM): 0.41 | Relative COL1A1 mRNA levels RQ (COL1A1 [2]; compound 1 μM): 0.43 | Relative COL1A1 mRNA levels RQ (COL1A1 [2]; compound 10 μM): 0.36 | Relative PNPLA3 mRNA levels (PNPLA3 [10]; 10 μM): 0.53 ± 0.25 | Relative PNPLA3 mRNA levels RQ (PNPLA3 [3]; compound 0.01 μM): 0.34 | Relative PNPLA3 mRNA levels RQ (PNPLA3 [3]; compound 0.1 μM): 0.65 | Relative PNPLA3 mRNA levels RQ (PNPLA3 [3]; compound 1 μM): 0.99 | Relative PNPLA3 mRNA levels RQ (PNPLA3 [3]; compound 10 μM): 2.39

Molecule: CNC(=O)Nc1ccc(-c2nc(N3CC4CCC(C3)O4)c3cnn(C4CCC5(CC4)OCCO5)c3n2)cc1 [WYE-125132]
Effect on COL1A1 expression in stellate cells (COL1A1 [2]): decreased both PNPLA3 and COL1A1 in HSCs in a dose-dependent manner | PNPLA3 expression, Fold change (Log 2) vs untreated (PNPLA3 [5]): −0.86 Log 2 | Effect on PNPLA3 mRNA levels in stellate cells (PNPLA3 [3]): decreased both PNPLA3 and COL1A1 in HSCs in a dose-dependent manner | COL1A1 expression in mouse liver (COL1A1 [11]): reduced COL1A1 expression

Molecule: CN1C(=O)c2sccc2N(C)c2nc(Nc3ccc(S(N)(=O)=O)cc3)ncc21 [XMU-MP-1]
PNPLA3 expression, Fold change (Log 2) vs untreated (PNPLA3 [5]): −0.66 Log 2

Molecule: Activin
Upregulation of PNPLA3 in the RNA-seq study (PNPLA3 [5]): best upregulators | Upregulation of PNPLA5 in the RNA-seq study (PNPLA5): best upregulators

B1: GDF2 (BMP9) (protein, UniProt Q9UK05 320-429, looked up)
Growth/differentiation factor …: SAGAGSHCQKTSLRVNFEDIGWDSWIIAPKEYEAYECKGGCFFPLADDVTPTKHAIVQTLVHLKFPTKVGKACCVPTKLSPISVLYKDDMGVPTLKYHYEGMSVAECGCR
Upregulation of PNPLA3 in the RNA-seq study (PNPLA3 [5]): best upregulators | Upregulation of PNPLA5 in the RNA-seq study (PNPLA5): best upregulators
